Data reported in patent US20190262347A1, “COMPOSITION COMPRISING COMBINATION OF EPICATECHIN AND ANTI-CANCER COMPOUND” (SPHAERA PHARMA PVT. LTD., priority 2016, published 2019).

System: HCT116 induced xenograft
Test: 21 days efficacy study in HCT116 induced xenograft model in mice
Type: in vivo
Conditions: 1004 5 mpk, epicatechin 30 mpk
Method: Anticancer potential of epicatechin in combination with a PI3K/mTOR inhibitor is evaluated against cancer xenograft model in immunocompromised mice. CD1 nude mice are dosed for a period of 21 days with vehicle control, PI3K/mTOR inhibitor and a combination of PI3K/mTORinhibitor and epicatechin. […] The results are presented at Table 2, Table 3 and FIGS. 1a and 1b.

C[C@H]1COCCN1c1nc(Oc2ccc(C(=O)N(C)C)cc2F)nc(-c2ccc(N)nc2)n1 [Compound 1004, (S)-4-((4-(6-aminopyridin-3-yl)-6-(3-methylmorpholino)-1,3,5-triazin-2-yl)oxy)-3-fluoro-N,N-dimethylbenzamide] was tested, and the “T/C % (Mean), Treated/Control on 21st day” value (CD1 nude mice, HCT116 xenograft, 21st day, oral) was 29%, the “TGI % (Mean), tumor growth inhibition” value (CD1 nude mice, HCT116 xenograft, dosed 21 days, oral) was 80% and the “Tumor weight” value (HCT116 xenograft in mice) was 0.72 g.
